Assay [1] concerns coenzyme independent L-sorbosone dehydrogenase of P. putida ATCC 21812. As for the experimental part:
Enzyme assay was carried out at 25° C. by measuring the decrease of absorbance at 600 nm of DCIP spectrophotometrically. One unit of enzyme activity was defined as the amount of enzyme which catalyzed the reduction of 1 μmole of DCIP per minute. The extinction coefficient of DCIP at pH 7.0 was taken as 9.45 mM^-1.
The basal reaction mixture was prepared by mixing 6 ml of 0.1M potassium phosphate buffer (pH 7.0) containing 0.3% Triton X-100, 0.45 ml of 2.5 mM DCIP and 10.35 ml of water. A cuvette with 1 cm light path contained 0.4 ml of basal reaction mixture, 20 μl of 10 mM phenazine methosulfate, 10 μl of enzyme solution and 20 μl of 110 mM L-sorbosone solution. A reference cuvette contained all the reagents except enzyme solution, but 10 μl of water was added instead. The reaction was started by the addition of the substrate.

In assay [2] the test system is coenzyme independent L-sorbosone dehydrogenase from P. putida ATCC 21812. Put plainly: Measurement of the Km value (DCIP/phenazine methosulfate enzyme assay). It counts as biochemical, Pseudomonas putida ATCC 21812. The following applies: DCIP and phenazine methosulfate as electron acceptors; 25° C., pH 7.0; read-out: apparent Michaelis constant (Km) for L-sorbosone. As for the experimental part: In the procedure described under 1) above, the velocities of oxidizing reactions with varying concentrations of L-sorbosone were measured to determine the apparent Michaelis constant (Km) for L-sorbosone. Km value was calculated to be 13±2 mM with DCIP and phenazine methosulfate as electron acceptors.

Assay [3] relates to coenzyme independent L-sorbosone dehydrogenase of P. putida ATCC 21812. Put plainly: Effect of addition of PQQ on the enzyme activity. It counts as biochemical, Pseudomonas putida ATCC 21812. The following applies: 0 PQQ = 100. From the text: Significant increase of the enzyme activity was observed by the addition of PQQ.

Where two headings read alike, the source gives them in different places.

Turning to `[N-]=[N+]=[N-].[Na+]` [NaN3, Sodium azide], the “Relative activity (%)” value in assay [1] (inhibitor 25.0 mM, None = 100.0) was 77.3%.

As a reminder, the Km is the concentration of substrate that gives half-maximal velocity. Consider `O=CC(=O)[C@@H](O)[C@H](O)[C@@H](O)CO` [L-sorbosone], for which the Km in assay [2] is 13 ± 2 mM.

`O=C(O)c1cc(C(=O)O)c2c(n1)C(=O)C(=O)c1cc(C(=O)O)[nH]c1-2` [PQQ, pyrroloquinoline quinone]: the Relative enzyme activity came out at 106 in assay [3] (PQQ concentration 0.1 (Micro Moles)); 142 in assay [3] (PQQ concentration 0.2 (Micro Moles), 0.2 µM); 150 in assay [3] (PQQ concentration 0.5 (Micro Moles), 0.5 µM); 158 in assay [3] (PQQ concentration 0.9 (Micro Moles), 0.9 µM); 174 in assay [3] (PQQ concentration 6.0 (Micro Moles), 6 µM); 192 in assay [3] (PQQ concentration 15.0 (Micro Moles), 15 µM).

For `O=C(O)CI` [ICH2 COOH, monoiodoacetate], in assay [1], the “Relative activity (%)” value came out at 88.6%.

The values above are taken from US5085993A, “Coenzyme-independent L-sorbosone dehydrogenase from Pseudomonas putida” (Hoffmann-La Roche Inc., priority 1987, dated 1992).
